Publication PMC11939078, “TAK-994 mechanistic investigation into drug-induced liver injury” (Toxicological Sciences, 2025)

How the values were obtained:
[1] = system: patients with narcolepsy; assay: Phase II studies TAK-994-1501 and TAK-994-1504
[2] = system: HepG2 cells; assay: HepG2 72-h cytotoxicity assay (glucose medium, ATP content); assay type: cell-based, human
Procedure: Cytotoxicity of TAK-994 was evaluated in glucose or galactose medium after 24 h and in glucose medium after 72 h in HepG2 cells, with cryopreserved HepG2 cells thawed and seeded onto assay plates at 5,000 cells/well in glucose or galactose medium for the 24-h assay and at 2,500 cells/well in glucose medium for the 72-h assay. After ∼24 h of incubation at 37 °C in 5% CO2, the cells were incubated with test solutions under the same conditions for 24 h for the plate with 5,000 cells/well or 72 h for the plate with 2,500 cells/well. Cytotoxicity of TAK-994 was also assessed using HepG2 cells with CYP3A4 overexpression using a lentivirus vector. HepG2/CYP3A4 cells were incubated in media containing TAK-994 (0.09 to 200 μM), positive control aflatoxin B1 (0.04 to 80 μM), or 1.0% DMSO (negative control). In both cytotoxicity assays, adenosine triphosphate (ATP) content was assessed after incubation using a commercial luminescence assay (CellTiter-Glo; Promega Co., Ltd, WI, United States).
HepG2 cells (American Type Culture Collection [ATCC, VA, USA]) were acclimated to Dulbecco's Modified Eagle Medium (DMEM; Thermo Fisher Scientific, MA, USA) with either high glucose or high galactose and containing 10% FBS for 1 week then cryopreserved. The cryopreserved HepG2 cells were thawed, cultured for 24 hours, then seeded at 5000 cells/well in glucose or galactose medium for the 24-hour assay and at 2500 cells/well in glucose medium for the 72-hour assay onto the assay plates. After approximately 24 hours of incubation at 37°C in 5% CO2, the cells were incubated with test solutions under the same conditions for 24 hours for the plate with 5000 cells/well or 72 hours for the plate with 2500 cells/well. After the incubation, CellTiter-Glo® (Promega Co., Ltd., WI, USA) was added to the assay plates, cells were incubated for 30 minutes, and luminescence was recorded to measure the ATP content using an EnVision plate reader (PerkinElmer Co., Ltd., MA, USA). The test compound TAK-994 was evaluated at concentrations of 0.046, 0.14, 0.41, 1.2, 3.7, 11, 33, and 100 μM. Positive controls rotenone and staurosporine were purchased from FUJIFILM Wako Pure Chemical Corporation (Osaka, Japan) and evaluated at concentrations of 0.046, 0.14, 0.41, 1.2, 3.7, 11, 33, and 100 μM in DMSO (rotenone) or 0.0046, 0.014, 0.041, 0.12, 0.37, 1.1 , 3.3, and 10 μM in DMSO (staurosporine). Two experiments were conducted at each concentration.
Inhibition rate (%) = (1-mean of sample values / mean of Max values) × 100, where Max values = vehicle control.

[3] = system: nonTg-rasH2 mice; assay: NonTg rasH2 mice 4-week oral gavage toxicity study; assay type: in vivo, mouse; settings: for Histopathological Liver Findings / ALT / AST / GLDH: NonTg rasH2 mice 4-week; for ALT / AST / GLDH: mean (SD)
Procedure: Although phase I human clinical trials were ongoing, additional GLP-compliant repeat-dose oral toxicity studies were conducted in nonTg-rasH2 mice, to enable carcinogenicity studies. […] The liver toxicity presented at high doses ≥300 mg/kg/day as single-cell necrosis of periportal hepatocytes associated with increased aspartate aminotransferase (AST), alkaline phosphatase, ALT, and glutamate dehydrogenase values that increased in a dose-proportional manner alongside cytochrome P450 induction (Table S2).
^cAll dose levels had 10 animals per sex.
*p<0.05 using Shirley-Williams test.

[4] = system: human liver microtissues; assay: Human liver microtissue (co-culture) cytotoxicity, cellular ATP; assay type: cell-based
Procedure: Toxicology of TAK-994 was assessed using lnSphero’s 3D lnSight Human Liver models, based on N-acetyl-L-cysteine causality assay, glutathione depletion assay, and lipopolysaccharide (LPS)-sensitization assay. Hepatotoxicity was assessed in 7- and 14-day mono and co-culture models, in which cells were exposed to TAK-994 (0.1, 0.3, 1, 3.16, 10, 31.6, or 100 μM) […].
The test system was Human 3D InSight Liver Models, production ID hLiMT_589, cryopreserved primary human hepatocytes (Lot IPDH_18; single donor) in monoculture or in co-culture with cryopreserved primary human nonparenchymal cells (Lot IPHN_17; single donor). Human liver microtissues are composed of roughly 1000 hepatocytes and 1000 non-parenchymal live cells. Non-parenchymal liver cell fractions are expected to be composed of Kupffer cells and liver endothelial cells however, these were not identified.
The culture medium was 3D InSight Human Liver Maintenance Medium TOX (Catalogue No. CS-07-001, InSphero). The treated cells in 96-well Akura™ plates were incubated in a humidified cell culture incubator (37°C, 5% CO2).
Mono and co-culture model cells were exposed to TAK-994 (0.1, 0.3, 1, 3.16, 10, 31.6, or 100 μM in 0.5% DMSO) for 7 days (TAK-994 administered on Days 0 and 4) or 14 days (TAK-994 administered on Days 0, 5, and 9). Six replicates were tested for each condition. The vehicle control was 0.5% DMSO, and the positive control was chlorpromazine (0.1, 0.3, 1, 3.16, 10, 31.6, or 100 μM in DMSO). Cellular ATP content was measured in the cell lysate on Days 7 or 14 of treatment. LDH release was measured in the cell supernatant on Days 4 and 7 or on Days 5, 9, and 14 and normalized to lysed controls.
Intracellular ATP content in model lysates was measured with the CellTiter-Glo® 2.0 Cell Viability Assay (Catalogue No. G9243, Promega). The Bioluminescent LDH Release Toxicity Assay Kit (Catalogue No. J2380, Promega) was used to assess extracellular LDH release and normalized to lysed controls. ATP, LDH, GSH, and triglycerides were measured according to internal technical operating procedures.

## CC(C)(O)C(=O)N1CC[C@H](NS(C)(=O)=O)[C@@H]1Cc1cccc(-c2cc(F)cc(F)c2)c1F.CC(C)(O)C(=O)N1CC[C@H](NS(C)(=O)=O)[C@@H]1Cc1cccc(-c2cc(F)cc(F)c2)c1F.O.O.O [TAK-994]
[1]; 90- and 180-mg BID treatment groups
  subjects who met discontinuation criteria due to increases in liver transaminases: 8
[1]; 90 and 180 mg dose groups
  cases that satisfied Hy's Law criteria, diagnosed as DILI: 3
[2]
  IC50: > 100 µM
  cytotoxicity margin (Cmax/IC50): > 100 ×
[2]; human
  top test concentration (100 µM) relative to Cmax in patients: ~100 fold
[3]; female, 300 mg/kg
  Histopathological Liver Findings: Single cell necrosis of hepatocytes
  ALT: 175 (79)* IU/L
  AST: 163 (65)* IU/L
  GLDH: 172 (66)* IU/L
[3]; female, 2000 mg/kg
  Histopathological Liver Findings: Single cell necrosis of hepatocytes
  ALT: 581 (278)* IU/L
  AST: 317 (203)* IU/L
  GLDH: 562 (324)* IU/L
[3]; female, 4000 mg/kg
  Histopathological Liver Findings: Single cell necrosis of hepatocytes
  ALT: 1242 (604)* IU/L
  AST: 473 (216)* IU/L
  GLDH: 1384 (585)* IU/L
[3]; male, 300 mg/kg
  Histopathological Liver Findings: Single cell necrosis of hepatocytes
  ALT: 99 (57)* IU/L
  AST: 79 (34)* IU/L
  GLDH: 104 (68)* IU/L
[3]; male, 2000 mg/kg
  Histopathological Liver Findings: Single cell necrosis of hepatocytes
  ALT: 337 (409)* IU/L
  AST: 211 (299)* IU/L
  GLDH: 331 (356)* IU/L
[3]; male, 4000 mg/kg
  Histopathological Liver Findings: Single cell necrosis of hepatocytes
  ALT: 1164 (330)* IU/L
  AST: 443 (150)* IU/L
  GLDH: 1303 (408)* IU/L
[3]; nonTg-rasH2 mice, repeat-dose oral
  doses at which liver toxicity (single-cell necrosis of periportal hepatocytes, increased AST, ALP, ALT, GLDH) presented: ≥ 300 mg/kg/day
[4]; 100 µM TAK-994, presence of nonparenchymal cells
  loss of cellular ATP: ~50%
[4]; 14 days, Cmax in patients dosed at 90 mg
  liver microtissue IC50 relative to clinical Cmax: > 100 fold
[4]; cellular ATP, read-out: IC50, liver microtissues (Fig. 2B)
  IC50: > 100 µM
